Source: patent publication US20040250313A1, “Insecticidal proteins and synergistic combinations thereof” (priority 2001, published 2004)
Several values for one entry are separate records, joined by “and”; a condition that tells them apart may be missing. Equal values may be shown once. Positions of bridges follow the written chain, without caps; N, C: chain ends. Residues, ends and D or L forms follow the SMILES beside them. No end group written: not given here.

What was measured:
Assay type in all cases: in vivo
Helicoverpa armigera = assay: LC50 determination, cotton leaf bioassay as in Example 2
Heliothis virescens [1] = assay: Comparative insect bioassay on treated cotton leaves, neonate larvae in minipots; settings: after three days; for corrected % kill: Abbott's formula corrected
Method: These were carried out between the synthetic peptide having the sequence depicted as SEQ ID No. 2 (also referred to as the GGK-445 peptide) and the insecticidal peptide obtainable from the fungus Paecilomyces farinosus (referred to as “445”) and described in International Patent Application Publication Number WO01/00841. This protein, having the sequence depicted as SEQ ID No. 41, was synthesised, purified and the N-terminal Glycine was acetylated.
(§1) Prior to the assay, twenty neonate Heliothis virescens larvae were gently brushed into each of three ‘minipot’ containers per treatment (i.e. three replicates per treatment). The peptide to be tested was diluted using sterile, deionised water to create a range of test concentrations for determination of a kill curve.
(§2) Three freshly excised cotton leaves per treatment had 0.05 ml of the appropriate peptide solution applied by pipette to the centre of the axial surface of each leaf. The droplet was then spread over a circular area in excess of the diameter of a minipot with a fine artists paint brush (a fresh paint brush being used for each compound to avoid contamination), the concentrations being applied from lowest to highest. The leaves were left in a fume cupboard just long enough for the surface deposit to dry, but care was taken to avoid excessive leaf wilting.
Once dry the leaves were placed, contaminated surface down over the appropriately labelled, pre-infested minipot and a lid snapped over it. The minipots were placed in plastic trays and placed in a controlled environment room at 25-27° C.
After three days the numbers of live larvae remaining were counted and percent mortality determined. Percent mortality for the peptide treatments was corrected in comparison with the water-treated control using the Abbott's formula. Damage to the leaf was also assessed and represented as percent feeding inhibition.

Spodoptera exigua = assay: LC50 determination, cotton leaf bioassay as in Example 2; settings: individual test, logit analysis
Spodoptera littoralis = assay: as above
Heliothis virescens [2] = assay: as above; settings: individual test, logit analysis
Method: as §1, §2
Once dry the leaves were placed, contaminated surface down over the appropriately labelled, pre-infested minipot and a lid snapped over it. […]
After three days the numbers of live larvae remaining were counted and percent mortality determined. […] Damage to the leaf was also assessed and represented as percent feeding inhibition.
Mean LC50 values were determined for the synthetic peptide, GGK-445, having the amino acid sequence designated in SEQ ID No. 2. […]

[3] = individual test, logit analysis

Compound | % feeding reduction compared to control (Heliothis virescens [1]; dose 0.15 ppm) | % feeding reduction compared to control (Heliothis virescens [1]; dose 0.46 ppm) | % feeding reduction compared to control (Heliothis virescens [1]; dose 1.37 ppm) | % feeding reduction compared to control (Heliothis virescens [1]; dose 4.12 ppm) | % feeding reduction compared to control (Heliothis virescens [1]; dose 12.35 ppm) | % feeding reduction compared to control (Heliothis virescens [1]; dose 37.04 ppm) | % feeding reduction compared to control (Heliothis virescens [1]; dose 111.11 ppm) | % feeding reduction compared to control (Heliothis virescens [1]; dose 333.33 ppm) | % feeding reduction compared to control (Heliothis virescens [1]; dose 1000 ppm) | further results
CC[C@H](C)[C@@H]1NC(=O)[C@@H]2CSSC[C@@H]3NC(=O)[C@H](CCCCN)NC(=O)[C@H](C(C)C)NC(=O)CNC(=O)[C@H](C)NC(=O)[C@@H]4CCCN4C(=O)[C@H]([C@@H](C)O)NC(=O)[C@@H](NC(=O)[C@@H](NC(=O)[C@H](CCCCN)NC(=O)CNC(=O)CN)[C@@H](C)CC)CSSC[C@H](NC(=O)[C@H](CSSC[C@@H](C(=O)N[C@@H](CCCNC(=N)N)C(=O)O)NC(=O)[C@H](C(C)C)NC(=O)[C@H](CCCCN)NC(=O)[C@H](CC(N)=O)NC(=O)[C@H](CC(N)=O)NC(=O)[C@H](C(C)C)NC(=O)CNC(=O)CNC1=O)NC(=O)[C@@H]1CCCN1C(=O)[C@H](CC(C)C)NC(=O)[C@H](C)NC(=O)[C@H](C)NC(=O)[C@@H]1CCCN1C3=O)C(=O)N1CCC[C@H]1C(=O)NCC(=O)N[C@@H](CC(C)C)C(=O)N[C@@H](CCCNC(=N)N)C(=O)N2 [GGK-445] (H-GGKICTPAGVKCPAALPCCPGLRCIGGVNNKVCR-OH; disulfide 5-19, 12-24, 18-33; N-terminus and C-terminus assumed) | 0.0% | 0.0% | 0.0% | 6.4% | 6.4% | 25.1% | 50.1% | 62.5% | 81.3% | LC50 (Helicoverpa armigera; [3]): 113.24 ppm and 421.93 ppm; mean LC50 (Helicoverpa armigera; mean of individual tests): 657.21 ppm; LC50 (Spodoptera exigua): 339.21 ppm and 972.5 ppm and 271.32 ppm; LC50 (Spodoptera littoralis; [3]): 283.26 ppm and 626.72 ppm and 371.71 ppm and 201.91 ppm; mean LC50 (Spodoptera littoralis; mean of individual tests): 343.75 ppm; LC50 (Heliothis virescens [2]): 171.15 ppm
Y1945F - synthesised, acetylated-445: insecticidal peptide obtainable from the fungus Paecilomyces farinosus, described in WO01/00841; SEQ ID No. 41, synthesised, purified, N-terminal Glycine acetylated (Ac-GKICTPAGVKCPAALPCCPGLRCIGGVNNKVCR; cysteine pairing not given here) | 0.0% | 0.0% | 0.0% | 43.8% | 68.8% | 68.8% | 83.8% | 88.8% | 91.3% | corrected % kill (Heliothis virescens [1]; dose 0.15 ppm): 0.0%; corrected % kill (Heliothis virescens [1]; dose 0.46 ppm): 5.6%; corrected % kill (Heliothis virescens [1]; dose 1.37 ppm): 13.0%; corrected % kill (Heliothis virescens [1]; dose 4.12 ppm): 48.1%; corrected % kill (Heliothis virescens [1]; dose 12.35 ppm): 75.9%; corrected % kill (Heliothis virescens [1]; dose 37.04 ppm): 72.2%; corrected % kill (Heliothis virescens [1]; dose 111.11 ppm): 98.1%; corrected % kill (Heliothis virescens [1]; dose 333.33 ppm): 98.1%; corrected % kill (Heliothis virescens [1]; dose 1000 ppm): 100.0%
